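Test compounds were applied to cells in 96-well plates for 48 hours at 5 doses. Abbreviation: GI50, concentration required for 50% inhibition of growth.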 Activity calls are given as the source filed them. Rule as the data show it: active = GI50 up to about 1.1 µM and inactive = higher.
Tests used:
Assay in all cases: NCI anticancer screen, dose series, 48 h
HCT-116 = test system: HCT-116
HCC 2998 = test system: HCC 2998
HL-60 = test system: HL-60
MOLT-4 = test system: MOLT-4
SK-MEL-5 = test system: SK-MEL-5
SF-295 = test system: SF-295
OVCAR-8 = test system: OVCAR-8
NCI-H23 = test system: NCI-H23
TK-10 = test system: TK-10
OVCAR-3 = test system: OVCAR-3
NCI-H460 = test system: NCI-H460
NCI-H226 = test system: NCI-H226
MDA-MB-231 = test system: MDA-MB-231
BT-549 = test system: BT-549
NCI-H522 = test system: NCI-H522
HOP-62 = test system: HOP-62
HT-29 = test system: HT-29
T47D = test system: T47D
K562 = test system: K562

Measured: GI50

CCCCOC(=O)C(=O)C(CC(CC)C(=O)c1ccccc1)C(=O)C=C(C)C (stereo unspecified)
inactive: HCT-116 > 100 µM | HCC 2998 > 100 µM | HL-60 > 100 µM | MOLT-4 > 100 µM | SK-MEL-5 > 100 µM | SF-295 > 100 µM | OVCAR-8 > 100 µM | NCI-H23 > 100 µM | TK-10 > 100 µM | OVCAR-3 > 100 µM | NCI-H460 > 100 µM | NCI-H226 > 100 µM | MDA-MB-231 > 100 µM | BT-549 > 100 µM | NCI-H522 > 100 µM | HOP-62 > 100 µM

NC(=O)Nc1ccc(S(=O)(=O)Nc2ccc(S(N)(=O)=O)cc2)cc1
inactive: HT-29 > 100 µM | HCT-116 > 100 µM | SK-MEL-5 > 100 µM | T47D > 100 µM | SF-295 > 100 µM | OVCAR-8 > 100 µM | NCI-H23 > 100 µM | K562 > 100 µM | TK-10 > 100 µM | OVCAR-3 > 100 µM | NCI-H460 > 100 µM | NCI-H226 > 100 µM | MDA-MB-231 > 100 µM | BT-549 > 100 µM | NCI-H522 > 100 µM | HOP-62 > 100 µM

CCNc1nc2ccccc2nc1NCC
inactive: HT-29 > 100 µM | HCT-116 > 100 µM | HCC 2998 > 100 µM | HL-60 > 100 µM | MOLT-4 > 100 µM | SK-MEL-5 > 100 µM | SF-295 > 100 µM | OVCAR-8 > 100 µM | NCI-H23 > 100 µM | K562 > 100 µM | TK-10 > 100 µM | OVCAR-3 > 100 µM | NCI-H460 > 100 µM | NCI-H226 > 100 µM | MDA-MB-231 > 100 µM | BT-549 > 100 µM | NCI-H522 > 100 µM

Cc1nc2ccc(Cl)cc2c(-n2ccnc2)c1CCn1ccnc1
inactive: HT-29 17.3 µM | HCT-116 23.8 µM | HCC 2998 49.8 µM | HL-60 23.7 µM | SK-MEL-5 20.7 µM | SF-295 34.2 µM | OVCAR-8 1.75 µM | NCI-H23 27.1 µM | K562 23.2 µM | TK-10 30.2 µM | OVCAR-3 32.1 µM | NCI-H460 23.2 µM | NCI-H226 16.4 µM | MDA-MB-231 17.8 µM | BT-549 19.8 µM | NCI-H522 22.4 µM | HOP-62 33.3 µM

CCOC(=O)Cc1csc2[n+]1C(=O)/C(=C\c1cccc(Cl)c1Cl)S2
inactive: HT-29 21.8 µM | HCT-116 12.7 µM | HCC 2998 17.7 µM | HL-60 19.5 µM | MOLT-4 10.3 µM | SK-MEL-5 8.93 µM | SF-295 15.3 µM | OVCAR-8 19.5 µM | NCI-H23 13.3 µM | TK-10 16 µM | OVCAR-3 7.05 µM | NCI-H460 14.9 µM | NCI-H226 14.8 µM | MDA-MB-231 25.9 µM | BT-549 17.6 µM | NCI-H522 14.8 µM | HOP-62 20.8 µM

Cc1ccc(S(=O)(=O)NC(=O)NCCc2c[nH]cn2)cc1
inactive: HT-29 > 100 µM | HCT-116 > 100 µM | HCC 2998 > 100 µM | HL-60 > 100 µM | MOLT-4 > 100 µM | SK-MEL-5 > 100 µM | SF-295 > 100 µM | OVCAR-8 > 100 µM | NCI-H23 > 100 µM | K562 > 100 µM | TK-10 > 100 µM | OVCAR-3 > 100 µM | NCI-H460 > 100 µM | NCI-H226 > 100 µM | MDA-MB-231 > 100 µM | NCI-H522 > 100 µM | HOP-62 > 100 µM

COc1ccc(-c2cc(-c3cc4cc(Br)ccc4nc3Cl)c(C#N)c(N)n2)cc1
inactive: HT-29 > 12.5 µM | HCT-116 > 12.5 µM | HL-60 > 12.5 µM | MOLT-4 9.66 µM | SK-MEL-5 > 12.5 µM | T47D > 12.5 µM | SF-295 > 12.5 µM | OVCAR-8 > 12.5 µM | NCI-H23 > 12.5 µM | K562 > 12.5 µM | OVCAR-3 > 12.5 µM | NCI-H226 > 12.5 µM | BT-549 > 12.5 µM | NCI-H522 > 12.5 µM | HOP-62 > 12.5 µM

[N-]=[N+]=C(C(=O)N1CCCC1=O)S(=O)(=O)c1ccccc1
inactive: HT-29 > 10 µM | HCT-116 80.4 µM | HCC 2998 > 100 µM | HL-60 55.1 µM | MOLT-4 50.2 µM | SK-MEL-5 98.9 µM | SF-295 > 100 µM | OVCAR-8 > 100 µM | NCI-H23 72.9 µM | K562 69.5 µM | TK-10 > 100 µM | OVCAR-3 76 µM | NCI-H460 39 µM | MDA-MB-231 > 100 µM | BT-549 > 100 µM | NCI-H522 30.9 µM | HOP-62 58.6 µM

C/C=C1\CC2C(=O)CCC2C2c3ccccc3OC12 (stereo unspecified)
inactive: HT-29 > 100 µM | HCT-116 > 100 µM | HL-60 87.7 µM | MOLT-4 > 100 µM | SK-MEL-5 > 100 µM | SF-295 > 100 µM | OVCAR-8 > 100 µM | NCI-H23 > 100 µM | K562 > 100 µM | TK-10 > 100 µM | OVCAR-3 > 100 µM | NCI-H460 > 100 µM | NCI-H226 > 100 µM | MDA-MB-231 > 100 µM | NCI-H522 > 100 µM | HOP-62 > 100 µM

COc1ccc(-n2/c(=N/C(=S)N(C)C)ss/c2=N\C(=S)N(C)C)cc1
inactive: HT-29 2.26 µM | HCT-116 13 µM | HCC 2998 > 100 µM | HL-60 17 µM | MOLT-4 79.4 µM | SF-295 68.4 µM | OVCAR-8 37 µM | NCI-H23 39.4 µM | K562 11.6 µM | TK-10 > 100 µM | OVCAR-3 19.8 µM | NCI-H460 2.98 µM | NCI-H226 > 100 µM | NCI-H522 2.54 µM | HOP-62 50.7 µM

CCCCCCCCCCCCCCCCOCC(COP(=O)(O)OCC1OC(n2cc(CC)c(=O)[nH]c2=O)CC1O)OC(=O)CCCCCCCCCCCCCCC (stereo unspecified)
inactive: HT-29 > 100 µM | HCT-116 > 100 µM | HCC 2998 > 100 µM | HL-60 52 µM | MOLT-4 > 100 µM | T47D > 100 µM | SF-295 > 100 µM | OVCAR-8 > 100 µM | NCI-H23 > 100 µM | K562 > 100 µM | TK-10 > 100 µM | OVCAR-3 > 100 µM | NCI-H226 > 100 µM | MDA-MB-231 > 100 µM | NCI-H522 > 100 µM | HOP-62 > 100 µM

CC(C)S(=O)(=O)ON1C(=O)c2ccc(N(C)C)cc2C1=O
inactive: HT-29 22.8 µM | HCT-116 14.8 µM | HCC 2998 13.3 µM | HL-60 3.41 µM | MOLT-4 2.12 µM | SK-MEL-5 3.96 µM | T47D 9.4 µM | SF-295 30.9 µM | OVCAR-8 2.65 µM | NCI-H23 27.7 µM | K562 3.41 µM | TK-10 20.5 µM | OVCAR-3 8.91 µM | NCI-H460 19.9 µM | NCI-H226 25.2 µM | MDA-MB-231 6.17 µM | NCI-H522 1.52 µM | HOP-62 42.5 µM

COc1ccccc1NC(=S)Nc1cccc(C)n1
inactive: HT-29 45.3 µM | HCT-116 > 100 µM | HL-60 > 100 µM | MOLT-4 > 100 µM | SK-MEL-5 > 100 µM | T47D > 100 µM | SF-295 69 µM | OVCAR-8 > 100 µM | K562 > 100 µM | TK-10 > 100 µM | OVCAR-3 > 100 µM | NCI-H460 > 100 µM | NCI-H226 36.9 µM | BT-549 > 100 µM | NCI-H522 2.84 µM | HOP-62 43.6 µM

O=C(Nc1ccccc1)N(C1=NCC(CI)S1)c1ccc(F)c(F)c1 (stereo unspecified)
inactive: HT-29 27 µM | HCT-116 29.1 µM | HCC 2998 55.8 µM | HL-60 21.4 µM | MOLT-4 19.5 µM | SK-MEL-5 17.3 µM | T47D 18.3 µM | SF-295 > 100 µM | OVCAR-8 47.8 µM | NCI-H23 29.2 µM | K562 27 µM | TK-10 44 µM | OVCAR-3 28.3 µM | NCI-H460 35.2 µM | MDA-MB-231 24.8 µM | HOP-62 > 100 µM

CN(C)CCCOC(=O)C(O)(Cc1ccccc1)C1CC1 (stereo unspecified)
inactive: HT-29 > 100 µM | HCT-116 > 100 µM | HCC 2998 > 100 µM | HL-60 > 100 µM | MOLT-4 > 100 µM | SK-MEL-5 > 100 µM | T47D > 100 µM | SF-295 > 100 µM | OVCAR-8 > 100 µM | NCI-H23 > 100 µM | K562 > 100 µM | TK-10 > 100 µM | OVCAR-3 > 100 µM | NCI-H460 > 100 µM | NCI-H226 > 100 µM | MDA-MB-231 > 100 µM | NCI-H522 > 100 µM | HOP-62 > 100 µM

C=CCSc1nn(CC=C)cc2ncnc1-2
inactive: HT-29 > 100 µM | HCT-116 > 100 µM | HL-60 > 100 µM | MOLT-4 > 100 µM | SK-MEL-5 > 100 µM | T47D > 100 µM | SF-295 > 100 µM | OVCAR-8 > 100 µM | NCI-H23 > 100 µM | K562 > 100 µM | TK-10 > 100 µM | OVCAR-3 > 100 µM | NCI-H460 > 100 µM | NCI-H226 > 100 µM | MDA-MB-231 > 100 µM | BT-549 > 100 µM | HOP-62 > 100 µM

CCOCc1c(C)cc(C)c(C2C(C(=O)c3ccccc3)N3c4ccccc4C=CC3C2(C#N)C(=O)OCC)c1C (stereo unspecified)
inactive: HT-29 32.3 µM | HCT-116 26.7 µM | HCC 2998 18.1 µM | HL-60 > 100 µM | MOLT-4 86.5 µM | SK-MEL-5 14.8 µM | SF-295 53 µM | NCI-H23 44.4 µM | K562 > 100 µM | OVCAR-3 17.4 µM | NCI-H460 27.9 µM | BT-549 28.1 µM
